Patent US4788206A, “Pentadieneamides” (Hoffmann-La Roche Inc., priority 1987, dated 1988)

What follows are molecules tested on PAF-Induced Bronchoconstriction (assay: PAF Induced Bronchoconstriction Assay). Settings: Cavia porcellus, po; 50 mg/Kg p.o., 2-hour pretreatment; read-out: Percent Inhib. of PAF-Induced Bronchoconstriction, 50 mg/Kg p.o.
Type: in vivo, guinea pig
Summary of the method: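 Male Hartley guinea pigs, urethane-anesthetized (2 g/kg i.p.), ventilated, with succinylcholine 1.2 mg/kg i.v. and propranolol 0.1 mg/kg i.v. pretreatment. Compound given i.v. 1 min or by oral gavage 2 h before i.v. PAF challenge at 1.0 μg/kg. Peak tracheal pressure rise over baseline compared with control mean gives % inhibition.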

| Structure (SMILES) | inhibition in vivo at 50 mg/kg [%] |
| --- | --- |
| COc1cccc(/C(=C/C=C/C(=O)NCCCCc2cccnc2)c2ccccc2)c1 [(2E,4E)-5-(3-Methoxyphenyl)-5-phenyl-N-[4-(3-pyridinyl)butyl]-2,4-pentadienamide] | 13 ± 18 |
| COc1cccc(/C(=C\C=C\C(=O)NCCCCc2cccnc2)c2cccc(F)c2)c1 [(2E,4E)-5-(3-fluorophenyl)-5-(3-methoxyphenyl)-N-[4-(3-pyridinyl)butyl]-2,4-pentadienamide] | 25 ± 14 |
| COc1cccc(/C(=C/C=C/C(=O)NCCCCc2cccnc2)c2cccc(F)c2)c1 [(2E,4Z)-5-(3-fluorophenyl)-5-(3-methoxyphenyl)-N-[4-(3-pyridinyl)butyl]-2,4-pentadienamide] | 1 ± 8 |
| COc1cccc(/C(=C\C=C\C(=O)NCCCCc2cccnc2)c2ccccc2)c1 [(2E,4Z)-5-(3-methoxyphenyl)-5-phenyl-N-[4-(3-pyridinyl)butyl]-2,4-pentadienamide] | 10 ± 10 |
| O=C(/C=C/C=C(c1ccccc1)c1ccccc1)NCCCCc1cccnc1 [(E)-5,5-Diphenyl-N-[4-(3-pyridinyl)butyl]-2,4-pentadienamide] | 12 ± 1 |
| COc1cccc(C(=C/C=C/C(=O)NCCCCc2cccnc2)c2cccc(OC)c2)c1 [(E)-5,5-bis (3-methoxyphenyl)-N-[4-(3-pyridinyl)butyl]-2,4-pentadienamide] | 31 ± 11 |
| O=C(/C=C/C=C(c1cccc(F)c1)c1cccc(F)c1)NCCCCc1cccnc1 [(E)-5,5-bis(3-Fluorophenyl)-N-[4-(3-pyridinyl)butyl]-2,4-pentadienamide] | 37 ± 11 |
| COc1ccc(C(=C/C=C/C(=O)NCCCCc2cccnc2)c2ccc(OC)cc2)cc1 [(E)-5,5-bis(4-Methoxyphenyl)-N-[4-(3-pyridinyl)butyl]-2,4-pentadienamide] | 82 ± 12 |
| O=C(/C=C/C=C(c1ccc(Cl)cc1)c1ccc(Cl)cc1)NCCCCc1cccnc1 [(E)-5,5-bis(4-chlorophenyl)-N-[4-(3-pyridinyl)butyl]-2,4-pentadienamide] | 63 ± 10 |
| O=C(/C=C/C=C(c1ccc(F)cc1)c1ccc(F)cc1)NCCCCc1cccnc1 [(E)-5,5-bis(4-fluorophenyl)-N-[4-(3-pyridinyl)butyl]-2,4-pentadienamide] | 97 ± 1 |

Same assay, conditions: i.v. (dose not given), 1 minute pretreatment, PAF 1.0 μg/kg i.v.

| Structure (SMILES) | Percent Inhib. of PAF-Induced Bronchoconstriction, mg/Kg i.v. [%] |
| --- | --- |
| COc1cccc(/C(=C\C=C\C(=O)NCCCCc2cccnc2)c2cccc(F)c2)c1 [(2E,4E)-5-(3-fluorophenyl)-5-(3-methoxyphenyl)-N-[4-(3-pyridinyl)butyl]-2,4-pentadienamide] | 88 ± 4 |
| COc1cccc(/C(=C/C=C/C(=O)NCCCCc2cccnc2)c2cccc(F)c2)c1 [(2E,4Z)-5-(3-fluorophenyl)-5-(3-methoxyphenyl)-N-[4-(3-pyridinyl)butyl]-2,4-pentadienamide] | 90 ± 5 |
| O=C(/C=C/C=C(c1ccccc1)c1ccccc1)NCCCCc1cccnc1 [(E)-5,5-Diphenyl-N-[4-(3-pyridinyl)butyl]-2,4-pentadienamide] | 35 ± 15 |
| COc1cccc(C(=C/C=C/C(=O)NCCCCc2cccnc2)c2cccc(OC)c2)c1 [(E)-5,5-bis (3-methoxyphenyl)-N-[4-(3-pyridinyl)butyl]-2,4-pentadienamide] | 69 ± 7 |
| O=C(/C=C/C=C(c1cccc(F)c1)c1cccc(F)c1)NCCCCc1cccnc1 [(E)-5,5-bis(3-Fluorophenyl)-N-[4-(3-pyridinyl)butyl]-2,4-pentadienamide] | 72 ± 16 |
| COc1ccc(C(=C/C=C/C(=O)NCCCCc2cccnc2)c2ccc(OC)cc2)cc1 [(E)-5,5-bis(4-Methoxyphenyl)-N-[4-(3-pyridinyl)butyl]-2,4-pentadienamide] | 92 ± 3 |
| O=C(/C=C/C=C(c1ccc(Cl)cc1)c1ccc(Cl)cc1)NCCCCc1cccnc1 [(E)-5,5-bis(4-chlorophenyl)-N-[4-(3-pyridinyl)butyl]-2,4-pentadienamide] | 95 ± 2 |
| O=C(/C=C/C=C(c1ccc(F)cc1)c1ccc(F)cc1)NCCCCc1cccnc1 [(E)-5,5-bis(4-fluorophenyl)-N-[4-(3-pyridinyl)butyl]-2,4-pentadienamide] | 91 ± 3 |
| O=C(/C=C/C=C(c1ccccc1C(F)(F)F)c1ccccc1C(F)(F)F)NCCCCc1cccnc1 [(E)-5,5-bis[2-(Trifluoromethyl)phenyl]-N-[4-(3-pyridinyl)butyl]-2,4-pentadienamide] | 6 ± 10 |

These molecules were tested against T1, PAF Binding, dog platelets (Canis lupus familiaris, UniProt A0A8I3NSH0) (assay: PAF Binding Assay (inhibition of 3H-PAF binding to washed dog platelets)). Settings: dog platelets, 3H-PAF, 10 minutes at room temperature; read-out: Inhib of PAF Binding IC50.
T1 construct: Washed platelets were prepared by resuspending the platelet pellet once with PBS containing 1 mM EDTA; from tissue; host or cells: washed platelets from dog blood
T1 sequence (A0A8I3NSH0 1-343): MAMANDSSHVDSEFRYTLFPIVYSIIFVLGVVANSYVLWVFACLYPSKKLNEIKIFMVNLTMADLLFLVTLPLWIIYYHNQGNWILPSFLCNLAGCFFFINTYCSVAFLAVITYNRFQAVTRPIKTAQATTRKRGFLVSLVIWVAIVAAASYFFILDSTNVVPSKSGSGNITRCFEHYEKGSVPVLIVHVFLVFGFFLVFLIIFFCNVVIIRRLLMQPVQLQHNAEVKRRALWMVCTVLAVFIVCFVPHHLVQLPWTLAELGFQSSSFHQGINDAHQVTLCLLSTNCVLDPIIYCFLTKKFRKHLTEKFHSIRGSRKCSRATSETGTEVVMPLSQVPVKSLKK
Summary of the method: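 Washed dog platelets (2×10^7 per tube, in 0.1% BSA-PBS) incubated 10 min at room temperature with 3H-PAF and test analogs. Bound ligand separated by 1 min centrifugation through silicone oil; platelet pellet radioactivity counted by liquid scintillation.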

| IC50 [µM] | Structure (SMILES) |
| --- | --- |
| 0.02 | COc1cccc(/C(=C/C=C/C(=O)NCCCCc2cccnc2)c2ccccc2)c1 [(2E,4E)-5-(3-Methoxyphenyl)-5-phenyl-N-[4-(3-pyridinyl)butyl]-2,4-pentadienamide] |
| 0.025 | COc1cccc(/C(=C\C=C\C(=O)NCCCCc2cccnc2)c2cccc(F)c2)c1 [(2E,4E)-5-(3-fluorophenyl)-5-(3-methoxyphenyl)-N-[4-(3-pyridinyl)butyl]-2,4-pentadienamide] |
| 0.04 | COc1cccc(/C(=C/C=C/C(=O)NCCCCc2cccnc2)c2cccc(F)c2)c1 [(2E,4Z)-5-(3-fluorophenyl)-5-(3-methoxyphenyl)-N-[4-(3-pyridinyl)butyl]-2,4-pentadienamide] |
| 0.035 | COc1cccc(/C(=C\C=C\C(=O)NCCCCc2cccnc2)c2ccccc2)c1 [(2E,4Z)-5-(3-methoxyphenyl)-5-phenyl-N-[4-(3-pyridinyl)butyl]-2,4-pentadienamide] |
| 0.055 | O=C(/C=C/C=C(c1ccccc1)c1ccccc1)NCCCCc1cccnc1 [(E)-5,5-Diphenyl-N-[4-(3-pyridinyl)butyl]-2,4-pentadienamide] |
| 0.002 | COc1cccc(C(=C/C=C/C(=O)NCCCCc2cccnc2)c2cccc(OC)c2)c1 [(E)-5,5-bis (3-methoxyphenyl)-N-[4-(3-pyridinyl)butyl]-2,4-pentadienamide] |
| 0.02 | O=C(/C=C/C=C(c1cccc(F)c1)c1cccc(F)c1)NCCCCc1cccnc1 [(E)-5,5-bis(3-Fluorophenyl)-N-[4-(3-pyridinyl)butyl]-2,4-pentadienamide] |
| 0.025 | COc1ccc(C(=C/C=C/C(=O)NCCCCc2cccnc2)c2ccc(OC)cc2)cc1 [(E)-5,5-bis(4-Methoxyphenyl)-N-[4-(3-pyridinyl)butyl]-2,4-pentadienamide] |
| 0.06 | O=C(/C=C/C=C(c1ccc(Cl)cc1)c1ccc(Cl)cc1)NCCCCc1cccnc1 [(E)-5,5-bis(4-chlorophenyl)-N-[4-(3-pyridinyl)butyl]-2,4-pentadienamide] |
| 0.04 | O=C(/C=C/C=C(c1ccc(F)cc1)c1ccc(F)cc1)NCCCCc1cccnc1 [(E)-5,5-bis(4-fluorophenyl)-N-[4-(3-pyridinyl)butyl]-2,4-pentadienamide] |
| 0.08 | O=C(/C=C/C=C(c1ccccc1C(F)(F)F)c1ccccc1C(F)(F)F)NCCCCc1cccnc1 [(E)-5,5-bis[2-(Trifluoromethyl)phenyl]-N-[4-(3-pyridinyl)butyl]-2,4-pentadienamide] |

What follows are molecules tested on PAF-Induced Platelet Count Decrease (assay: PAF Induced Platelet Count Decrease). Settings: 3 mg/Kg (route not given).
Type: in vivo, guinea pig
Description: PAF Induced Platelet Count Decrease
Male Hartley guinea pigs weighing between 500 and 900 grams were fed standard guinea pig chow and tap water ad libitum. PAF was solubilized in ethanol and stored as a 2 mM stock solution at -70° C. The stock solutuion of PAF was diluted to 1 pM in Tris buffer pH 7.4 and 0.1% BSA for all experiments.
(a) Intravenous Procedure
Guinea pigs were anesthetized with urethane (1.6 g/kg, i.p.). A catheter (PE50) was introduced into the right carotid artery for withdrawing blood. A second catheter PE10) was introduced into the jugular vein for injecting drugs and for administering the PAF challenge (75 ng/kg, i.v.). A control blood sample was obtained and platelets were counted in a whole blood platelet analyzer. PAF was then given and blood samples were taken 15, 30, and 60 seconds after the challenge for platelet counts. Fifteen minutes later, selected concentrations of the test compound were solubilized in DMSO and injected intravenously into a group of 4-6 animals. Only one concentration of antagonist was used in each animal group. Fifteen minutes after drug injection, blood smaples were taken before and 15, 30, and 60 sec after the PAF challenge, and analyzed for platelet number.
Animals were anesthetized with sodium pentobarbital (35 mg/kg. i.p.) and the caritoid artery and jugular vein were cannulated as described above. The cannulae were exteriorized at the base of the neck and the animals were allowed to recover. At least 18 hours after surgery, conscious unrestrained guinea pigs were used in the experiment. The animals were challenged two time with PAF (120 ng/kg. i.v.); the first to establish a consistent response to PAF and the second to serve as a control for the PAF challenge. Blood samples were taken before and 15, 30, and 45 seconds after PAF challenge and platelets were counted. Thirty minutes after the control PAF challenge, the animal were orally dosed with either gum acacia or the test compound. Animals were then challenged with PAF at 1, 3, 5, and 24 hours after the administration of the drug.
Data Analysis and Statistics
The % change, i.e., the difference in platelet number before and after PAF challenge was calculated by: [formula]
Statistical significance (p<0.05) of the difference between the mean PAF control and mean drug treated activity was determined with paried Students's t-test.

| Structure (SMILES) | Percent Inhib. of PAF-Induced Platelet Count Decrease, 3 mg/Kg |
| --- | --- |
| COc1cccc(/C(=C\C=C\C(=O)NCCCCc2cccnc2)c2cccc(F)c2)c1 [(2E,4E)-5-(3-fluorophenyl)-5-(3-methoxyphenyl)-N-[4-(3-pyridinyl)butyl]-2,4-pentadienamide] | inactive |
| COc1cccc(/C(=C\C=C\C(=O)NCCCCc2cccnc2)c2ccccc2)c1 [(2E,4Z)-5-(3-methoxyphenyl)-5-phenyl-N-[4-(3-pyridinyl)butyl]-2,4-pentadienamide] | inactive |

Same assay, conditions: 3 mg/Kg, (1 min)

| Structure (SMILES) | Percent Inhib. of PAF-Induced Platelet Count Decrease, 3 mg/Kg (1 min) [%] |
| --- | --- |
| COc1cccc(/C(=C/C=C/C(=O)NCCCCc2cccnc2)c2cccc(F)c2)c1 [(2E,4Z)-5-(3-fluorophenyl)-5-(3-methoxyphenyl)-N-[4-(3-pyridinyl)butyl]-2,4-pentadienamide] | 67 |

Same assay, conditions: 30 mg/Kg p.o.

| Structure (SMILES) | Percent Inhib. of PAF-Induced Platelet Count Decrease, 30 mg/Kg p.o. [%] |
| --- | --- |
| COc1cccc(C(=C/C=C/C(=O)NCCCCc2cccnc2)c2cccc(OC)c2)c1 [(E)-5,5-bis (3-methoxyphenyl)-N-[4-(3-pyridinyl)butyl]-2,4-pentadienamide] | 48 |
| O=C(/C=C/C=C(c1cccc(F)c1)c1cccc(F)c1)NCCCCc1cccnc1 [(E)-5,5-bis(3-Fluorophenyl)-N-[4-(3-pyridinyl)butyl]-2,4-pentadienamide] | 58 |
| COc1ccc(C(=C/C=C/C(=O)NCCCCc2cccnc2)c2ccc(OC)cc2)cc1 [(E)-5,5-bis(4-Methoxyphenyl)-N-[4-(3-pyridinyl)butyl]-2,4-pentadienamide] | 45 |

Same assay, conditions: Cavia porcellus, Platelet; 3 mg/Kg (route not given); read-out: Percent Inhib. of PAF-Induced Platelet Count Decrease, 3 mg/Kg

| Structure (SMILES) | inhibition in vivo at 3 mg/kg [%] |
| --- | --- |
| COc1cccc(/C(=C/C=C/C(=O)NCCCCc2cccnc2)c2ccccc2)c1 [(2E,4E)-5-(3-Methoxyphenyl)-5-phenyl-N-[4-(3-pyridinyl)butyl]-2,4-pentadienamide] | 40 |
| O=C(/C=C/C=C(c1ccccc1)c1ccccc1)NCCCCc1cccnc1 [(E)-5,5-Diphenyl-N-[4-(3-pyridinyl)butyl]-2,4-pentadienamide] | 14 |
| COc1cccc(C(=C/C=C/C(=O)NCCCCc2cccnc2)c2cccc(OC)c2)c1 [(E)-5,5-bis (3-methoxyphenyl)-N-[4-(3-pyridinyl)butyl]-2,4-pentadienamide] | 75 |
| O=C(/C=C/C=C(c1cccc(F)c1)c1cccc(F)c1)NCCCCc1cccnc1 [(E)-5,5-bis(3-Fluorophenyl)-N-[4-(3-pyridinyl)butyl]-2,4-pentadienamide] | 61 |
| COc1ccc(C(=C/C=C/C(=O)NCCCCc2cccnc2)c2ccc(OC)cc2)cc1 [(E)-5,5-bis(4-Methoxyphenyl)-N-[4-(3-pyridinyl)butyl]-2,4-pentadienamide] | 40 |
| O=C(/C=C/C=C(c1ccc(Cl)cc1)c1ccc(Cl)cc1)NCCCCc1cccnc1 [(E)-5,5-bis(4-chlorophenyl)-N-[4-(3-pyridinyl)butyl]-2,4-pentadienamide] | 0 |
| O=C(/C=C/C=C(c1ccc(F)cc1)c1ccc(F)cc1)NCCCCc1cccnc1 [(E)-5,5-bis(4-fluorophenyl)-N-[4-(3-pyridinyl)butyl]-2,4-pentadienamide] | 18 |
| O=C(/C=C/C=C(c1ccccc1C(F)(F)F)c1ccccc1C(F)(F)F)NCCCCc1cccnc1 [(E)-5,5-bis[2-(Trifluoromethyl)phenyl]-N-[4-(3-pyridinyl)butyl]-2,4-pentadienamide] | 0 |
